Results as given in US8513232B2, “Substituted spirocyclic piperidine derivatives as histamine-3 (H3) receptor ligands” (Cephalon, Inc., priority 2008, dated 2013).

How the values were obtained:
[1] = target: T1, human H3 receptor (Homo sapiens, UniProt Q9Y5N1); experiment: Human H3 radioligand binding ([3H]-N-alpha-methylhistamine, SPA); conditions: Table A; human H3 binding; read-out: Human Ki
T1 construct: expressed in transfected cells
Procedure: (§1) Methods: CHO cells stably expressing the human H3 receptor (GenBank: NM_007232) were harvested and cell pellets were frozen (−80° C.). Cell pellets were resuspended in 5 mM Tris-HCl, pH 7.5 with […] and a cocktail of protease inhibitors (Complete Protease Inhibitior Tablets, Roche Diagnostics). Cells were disrupted using a polytron cell homogenizer and the suspension was centrifuged at 1000×g for 10 minutes at 4° C. The pellet was discarded and the supernatant centrifuged at 40,000×g for 30 min at 4° C. This membrane pellet was washed in membrane buffer containing 50 mM Tris-HCl, pH 7.5 with 0.6 mM EDTA, 5 mM MgCl2 and protease inhibitors, recentrifuged as above and the final pellet resuspended in membrane buffer plus 250 mM sucrose and frozen at −80° C.
(§2) Radioligand Binding. Membranes were resuspended in 50 mM Tris HCl (pH 7.4), 5 mM MgCl2, 0.1% BSA. The membrane suspensions (10 μg protein per well) were incubated in a 96 well microtiter plate with [^3H]-N-alpha-methylhistamine (approximately 1 nM final concentration), test compounds at various concentrations (0.01 nM-30 μM) and scintillation proximity beads (Perkin Elmer, FlashBlueGPCR Scintillating Beads) in a final volume of 80 μl for 4 hours at room temperature, protected from light. Non-specific binding was determined in the presence of 10 μM clobenpropit. Radioligand bound to receptor, and therefore in proximity to the scintillation beads, was measured using a MicroBeta scintillation counter.

[2] = target: T2, rat histamine H3 receptor (Rattus norvegicus, UniProt Q9QYN8); experiment: Rat H3 radioligand binding ([3H]-N-alpha-methylhistamine, SPA); conditions: Table A; rat H3 binding; read-out: Rat Ki
T2 construct: encoding the entire 445-amino-acid rat histamine H3 receptor; expressed in transfected cells; membrane preparation
T2 sequence (Q9QYN8 whole entry): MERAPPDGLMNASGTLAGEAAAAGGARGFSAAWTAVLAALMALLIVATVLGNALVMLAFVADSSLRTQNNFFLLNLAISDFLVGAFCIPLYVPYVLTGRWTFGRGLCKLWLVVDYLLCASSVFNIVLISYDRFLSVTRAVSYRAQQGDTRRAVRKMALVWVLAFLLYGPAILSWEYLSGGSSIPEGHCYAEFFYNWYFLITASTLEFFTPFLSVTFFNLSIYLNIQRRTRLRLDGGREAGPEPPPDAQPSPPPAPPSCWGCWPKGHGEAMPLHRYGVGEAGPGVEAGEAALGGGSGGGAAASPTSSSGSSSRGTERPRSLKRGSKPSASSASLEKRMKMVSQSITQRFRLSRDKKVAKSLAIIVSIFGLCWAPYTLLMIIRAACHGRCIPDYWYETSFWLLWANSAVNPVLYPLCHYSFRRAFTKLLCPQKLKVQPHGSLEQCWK
Text: as §1, with “Cell line development and membrane preparation. The rat” for “Methods: CHO cells stably expressing the human”, “cDNA was PCR amplified from reverse-transcribed RNA pooled from rat thalamus, hypothalamus, striatum and prefrontal cortex with a sequence corresponding to by #338-1672 of Genbank file #NM_053506, encoding the entire 445-amino-acid rat histamine H3 receptor. This was engineered into the pIRES-neo3 mammalian expression vector, which was stably transfected into the CHO-A3 cell line (Euroscreen, Belgium), followed by clonal selection by limiting dilution. Cells” for “(GenBank: NM_007232)”
as §2

T1 sequence (Q9Y5N1 whole entry): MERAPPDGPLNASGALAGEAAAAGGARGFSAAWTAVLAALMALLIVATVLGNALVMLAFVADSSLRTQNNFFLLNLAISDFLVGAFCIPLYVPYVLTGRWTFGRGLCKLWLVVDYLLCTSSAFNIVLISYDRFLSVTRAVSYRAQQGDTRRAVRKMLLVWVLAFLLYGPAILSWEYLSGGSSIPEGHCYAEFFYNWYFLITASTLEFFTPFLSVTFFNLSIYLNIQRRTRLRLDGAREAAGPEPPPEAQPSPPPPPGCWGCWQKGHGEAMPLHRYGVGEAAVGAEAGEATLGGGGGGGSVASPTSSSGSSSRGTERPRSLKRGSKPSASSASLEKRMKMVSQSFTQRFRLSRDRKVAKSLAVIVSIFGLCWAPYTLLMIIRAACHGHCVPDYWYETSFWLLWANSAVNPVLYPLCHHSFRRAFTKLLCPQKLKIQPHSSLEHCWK

Row | Structure (SMILES) | Ki [1] [nM] | Ki [2] [nM] | melting point [°C]
1 | COCCNC(=O)c1ccc(-c2ccc3c(c2)COC2(CCN(C4CCC4)CC2)O3)cc1 [Example 26] | < 200 | < 200 | 145 to 147
2 | O=C(c1ccc(-c2ccc3c(c2)COC2(CCN(C4CCC4)CC2)O3)cc1)N1CCCCC1 [Example 27] | < 200 | < 200 | 59 to 62
3 | CCN(C)C(=O)c1ccc(-c2ccc3c(c2)COC2(CCN(C4CCC4)CC2)O3)cc1 [Example 30] | < 200 | < 200 | 140 to 141
4 | CC(C)NS(=O)(=O)c1ccc(-c2ccc3c(c2)COC2(CCN(C4CCC4)CC2)O3)cc1 [Example 35] | < 200 | < 200 | 85 to 90
5 | O=S(=O)(c1ccc(-c2ccc3c(c2)COC2(CCN(C4CCC4)CC2)O3)cc1)N1CCCCC1 [Example 37] | < 200 | < 200 | 85 to 90
6 | CN(C)C(=O)c1ccc(-c2ccc3c(c2)COC2(CCN(C4CCC4)CC2)O3)cc1F [Example 40] | < 200 | < 200 | 172.9 to 173.5
7 | O=C(c1ccc(-c2ccc3c(c2)COC2(CCN(C4CCC4)CC2)O3)cc1F)N1CCCC1 [Example 41] | < 200 | < 200 | 171 to 172.5
8 | O=C(Nc1nccs1)c1ccc(-c2ccc3c(c2)COC2(CCN(C4CCC4)CC2)O3)cc1 [Example 43] | < 200 | < 200 | 242 to 243
9 | O=C(NCCO)c1ccc(-c2ccc3c(c2)COC2(CCN(C4CCC4)CC2)O3)cc1 [Example 50] | < 200 | < 200 | 185 to 187
10 | O=C(c1cccc(-c2ccc3c(c2)COC2(CCN(C4CCC4)CC2)O3)c1)N1CCCC1 [Example 57] | < 200 | < 200 | 221.7
11 | O=C(NC[C@H]1CCCO1)c1ccc(-c2ccc3c(c2)COC2(CCN(C4CCC4)CC2)O3)cc1 [Example 67] | < 200 | < 200 | 184 to 186
12 | O=C(c1ccc(-c2ccc3c(c2)COC2(CCN(C4CCC4)CC2)O3)cc1)N1CC[C@H](F)C1 [Example 68] | < 200 | < 200 | 184 to 186
13 | O=C(c1ccc(-c2ccc3c(c2)COC2(CCN(C4CCC4)CC2)O3)cc1)N1CC[C@@H](F)C1 [Example 69] | < 200 | < 200 | 185 to 186
14 | Cc1noc(C)c1-c1ccc2c(c1)COC1(CCN(C3CCC3)CC1)O2 [Example 76] | < 200 | < 200 | 123 to 127
15 | O=C1OCCN1c1ccc2c(c1)COC1(CCN(C3CCC3)CC1)O2 [Example 77] | < 200 | < 200 | 165 to 168
16 | O=C1CCCN1c1ccc2c(c1)COC1(CCN(C3CCC3)CC1)O2 [Example 78] | < 200 | 200 to 1000 | 187 to 188
17 | CN1CCN(c2ccc3c(c2)COC2(CCN(C4CCC4)CC2)O3)C1=O [Example 82] | < 200 | < 200 | 180 to 181
18 | CN(C)C(=O)c1cn(-c2ccc3c(c2)COC2(CCN(C4CCC4)CC2)O3)c2ccccc12 [Example 83] | < 200 | < 200 | 100 to 110
19 | OCc1cn(-c2ccc3c(c2)COC2(CCN(C4CCC4)CC2)O3)c2ccccc12 [Example 84] | < 200 | < 200 | 138 to 141
20 | CN(C)C(=O)c1cccc2c1ccn2-c1ccc2c(c1)COC1(CCN(C3CCC3)CC1)O2 [Example 85] | < 200 | < 200 | 76 to 80
21 | CNC(=O)c1cn(-c2ccc3c(c2)COC2(CCN(C4CCC4)CC2)O3)cc1C [Example 86] | < 200 | < 200 | 149 to 153
22 | Cc1cn(-c2ccc3c(c2)COC2(CCN(C4CCC4)CC2)O3)cc1CO [Example 87] | < 200 | < 200 | 133 to 135
23 | O=C(c1ccc(-c2ccc3c(c2)OC2(CCN(C4CCC4)CC2)O3)cc1)N1CCCC1 [Example 90] | < 200 | 200 to 1000 | 176.8 to 177.3
24 | O=C(c1cccc(-c2ccc3c(c2)OC2(CCN(C4CCC4)CC2)OC3)c1)N1CCOCC1 [Example 96] | 200 to 1000 | 200 to 1000 | 61

Now from value to compound:

Row | Ki [1] [nM] | Ki [2] [nM] | melting point [°C] | Structure (SMILES)
25 | < 200 | < 200 | 64.5 to 66 | c1cn2cc(-c3ccc4c(c3)COC3(CCN(C5CCC5)CC3)O4)ccc2n1 [Example 19]
26 | < 200 | < 200 | 122 to 124 | COc1ccc(-c2ccc3c(c2)COC2(CCN(C4CCC4)CC2)O3)cn1 [Example 22]
27 | < 200 | < 200 | 148 to 149 | CCOC(=O)c1ccc(-c2ccc3c(c2)COC2(CCN(C4CCC4)CC2)O3)cc1 [Example 28]
28 | < 200 | < 200 | 187 to 190 | CN(C)C(=O)c1ccc(-c2ccc3c(c2)COC2(CCN(C4CCC4)CC2)O3)cc1 [Example 29]
29 | < 200 | < 200 | 137 to 139 | Cc1ccc(-c2ccc3c(c2)COC2(CCN(C4CCC4)CC2)O3)cn1 [Example 31]
30 | < 200 | < 200 | 198 to 199 | CNC(=O)c1ccc(-c2ccc3c(c2)COC2(CCN(C4CCC4)CC2)O3)cc1 [Example 33]
31 | < 200 | < 200 | 159.8 to 160.7 | N#Cc1ccc(-c2ccc3c(c2)COC2(CCN(C4CCC4)CC2)O3)cn1 [Example 34]
32 | < 200 | < 200 | 147.8 to 149 | CNC(=O)c1ccc(-c2ccc3c(c2)COC2(CCN(C4CCC4)CC2)O3)cc1F [Example 36]
33 | < 200 | < 200 | 127.8 to 128.6 | c1ccc(-c2ccc3c(c2)COC2(CCN(C4CCC4)CC2)O3)cc1 [Example 39]
34 | < 200 | < 200 | 204.8 to 205.8 | CN(C)c1ncc(-c2ccc3c(c2)COC2(CCN(C4CCC4)CC2)O3)cn1 [Example 42]
35 | < 200 | < 200 | 131 to 134 | OCc1ccc(-c2ccc3c(c2)COC2(CCN(C4CCC4)CC2)O3)cc1 [Example 44]
36 | < 200 | < 200 | 153 to 155 | c1ncc(-c2ccc3c(c2)COC2(CCN(C4CCC4)CC2)O3)cn1 [Example 45]
37 | < 200 | < 200 | 186 to 187 | CC(=O)Nc1ccc(-c2ccc3c(c2)COC2(CCN(C4CCC4)CC2)O3)cn1 [Example 46]
38 | < 200 | < 200 | 95 to 100 | Fc1ncccc1-c1ccc2c(c1)COC1(CCN(C3CCC3)CC1)O2 [Example 47]
39 | < 200 | < 200 | 195 to 200 | NS(=O)(=O)c1ccc(-c2ccc3c(c2)COC2(CCN(C4CCC4)CC2)O3)cc1 [Example 48]
40 | < 200 | < 200 | 109.3 | NC(=O)c1cccc(-c2ccc3c(c2)COC2(CCN(C4CCC4)CC2)O3)c1 [Example 58]
41 | < 200 | < 200 | 239.2 | CCOC(=O)c1cncc(-c2ccc3c(c2)COC2(CCN(C4CCC4)CC2)O3)c1 [Example 59]
42 | < 200 | < 200 | 165 to 166 | c1nc(-c2ccc3c(c2)COC2(CCN(C4CCC4)CC2)O3)cs1 [Example 66]
43 | < 200 | < 200 | 114 to 115 | c1cnc(-c2ccc3c(c2)COC2(CCN(C4CCC4)CC2)O3)cn1 [Example 71]
44 | < 200 | < 200 | 151 to 153 | Cc1nc(-c2ccc3c(c2)COC2(CCN(C4CCC4)CC2)O3)cs1 [Example 74]
45 | > 1000 | > 1000 | 54 | CCOc1ccc(-c2ccc3c(c2)OC2(CCN(C4CCC4)CC2)OC3)cn1 [Example 95]
